Data: patent publication US20120165403A1, “METHODS OF INHIBITING THE ACTIVITY OF HSP90 AND/OR ARYL HYDROCARBON RECEPTOR” (UNIVERSITY OF ROCHESTER, priority 2004, published 2012)

What was measured:
p23 = target: T1, p23 (Homo sapiens, UniProt Q15185); experiment: Affinity chromatography on EGCG-conjugated Sepharose, in vitro translated p23; assay type: binding; settings: 35S-p23 in vitro translated in RRL
T1 construct: made in house; host or cells: coupled transcription/translation in rabbit reticulocyte lysate (TNT, Promega), 35S-labelled
T1 sequence (Q15185 1-160): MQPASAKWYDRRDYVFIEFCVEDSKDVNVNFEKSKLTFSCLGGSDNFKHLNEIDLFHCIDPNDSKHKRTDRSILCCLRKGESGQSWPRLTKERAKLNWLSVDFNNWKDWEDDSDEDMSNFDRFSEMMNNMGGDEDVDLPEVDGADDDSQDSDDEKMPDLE
Source text: (§1) Murine AhR and ARNT cDNA (obtained from J. Whitlock and O. Hankinson, respectively) were inserted into pcDNA3 (Invitrogen, Carlsbad, Calif.). Chicken hsp90 constructs (FIG. 5), c90711hsp (wild-type), c90G94D (wild-type point mutant gly94→Asp (Grenert et al., J. Biol. Chem. 272:23843-23850 (1997), which is hereby incorporated by reference in its entirety), c90D92A (wild-type point mutant Asp92→Ala (Sullivan et al., J. Biol. Chem. 268:20373-20379 (1993), which is hereby incorporated by reference in its entirety), c90N221 (wild-type truncation mutant encoding a.a. 221-728 (Sullivan et al., J. Biol. Chem. 268:20373-20379 (1993), which is hereby incorporated by reference in its entirety)), c90N303 (a.a. 303-728) and c90N538 (a.a. 538-728) were kind gifts from Dr. D. Toft (Rochester, Minn.). The C-terminal truncation mutant c900507 (a.a. 1-221) was obtained from Dr. L. Neckers (Rockville, Md.) (Grenert et al., J. Biol. Chem. 272:23843-23850 (1997); Marcu et al., J. Biol. Chem. 275:37181-37186 (2000), which are hereby incorporated by reference in their entirety). Human p23 cDNA was excised from pQE80-p23 (obtained from W. Chan Stockton, Calif.) by sequential digests using the restriction enzymes Sad (3′-end) and BamHI (5′-end) and inserted into the similarly digested pET28a (Novagen, Madison, Wis.). […]

AhR = assay type: biochemical, mouse
Description: Hepa cytosol (2.5 mg protein/ml) was incubated with a range of concentrations of EGCG (1-200 μM) or EGCG in the presence of 3 nM TCDD for 2 h at room temperature. Treated cytosols (21-25 μg) were mixed with nonspecific DNA (herring sperm), 0.08M NaCl, and 25,000-45,000 cpm of [^32P]-endlabeled oligonucleotide containing a single consensus DRE (Gasiewicz et al., Biochem. Pharmacol. 52:1787-1803 (1996), which is hereby incorporated by reference in its entirety). Samples were subjected to nondenaturing electrophoresis (4% acrylamide) and visualized using a Phosphoimager.

chicken hsp90 = chicken hsp90 (Gallus gallus, UniProt P11501); experiment: Affinity chromatography on EGCG-conjugated Sepharose, hsp90 point and truncation mutants; assay type: binding; parameters: made in house; host or cells: coupled transcription/translation in rabbit reticulocyte lysate (TNT, Promega), 35S-labelled; settings: smallest truncation mutant N538, amino acids 538-728
Source text: as §1

chicken hsp90, sequence (P11501 538-728): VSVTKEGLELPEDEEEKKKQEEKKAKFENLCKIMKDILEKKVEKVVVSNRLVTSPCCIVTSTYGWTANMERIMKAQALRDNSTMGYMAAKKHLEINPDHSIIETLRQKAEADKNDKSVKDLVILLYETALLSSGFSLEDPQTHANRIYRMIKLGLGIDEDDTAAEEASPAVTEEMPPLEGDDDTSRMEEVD

O=C(O[C@@H]1Cc2c(O)cc(O)cc2O[C@@H]1c1cc(O)c(O)c(O)c1)c1cc(O)c(O)c(O)c1 [EGCG, epigallocatechin gallate] was tested, and the “binding of p23 to immobilized EGCG” value (p23) was “incapable of binding immobilized EGCG”, the “DRE binding, treatment alone” value (AhR; Hepa cytosol and extracts from treated whole cells, EGCG alone) was “DRE binding was not observed” and the “inhibition of TCDD-induced AhR-DRE binding” value (AhR; Hepa cytosol, 100 μM EGCG, 3 nM TCDD, 2 h) was roughly 100%. The “effect on the TCDD-AhR-DRE shifted band” value (AhR; Hepa cytosol, EGCG 1-200 μM, 3 nM TCDD) was “concentration dependent decrease” and the “location of the binding site on hsp90” value (chicken hsp90) was “binding of EGCG occurs within this region of the protein”.
